Reference: the supplement of paper PMC11208160

Assay: recombinant barcode read abundance after kanamycin selection (control-corrected) (log10(CPM+1)); higher = more efficient recombination; sequences stand for … in AGTGCAGAGAAAATCGGCCAGTTTTCTCTGCCTGCAGTCCGCATGCCGT…ATTTATGCAGCGGACTGCCTTTCTCCCAAAGTGATAAACCGGACAGTATCATGGACCGGTTTTCCCGGTAATCCGTATTTGCAAGGTTGGTTTCACT; site = the 11-nt target
Protocol: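 Same pooled E. coli target screen (IS621 bridge recombinase, kanamycin selection, control-corrected CPM, mean of 2 biological replicates). Here the two core-binding nucleotides of the LTG and RTG of the bridge RNA target-binding loop are mutated. Target and donor CT cores are held constant, and the other 9 guide positions match the target. The target is read from the library oligo sequence. Molecule = full bridge RNA written as DNA: nt 1-80 from the library oligo, rest WT scaffold.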

Sequence | recombinant barcode read abundance (log10)
AGGAGGTAATGGGTTCTAACCTGTTGCCTTT [AGGAGGTCTAG_LTGcore_AA_RTGcore_AA] (site AGGAGGTCTAG) (LTG core: AA, RTG core: AA) | 0.0693
AGGAGGTAGTGGGTTCTAACCTGTTGCCTCT [AGGAGGTCTAG_LTGcore_AG_RTGcore_AG] (site AGGAGGTCTAG) (LTG core: AG, RTG core: AG) | 0.0957
AGGAGGTATTGGGTTCTAACCTGTTGCCTAG [AGGAGGTCTAG_LTGcore_AT_RTGcore_CT] (site AGGAGGTCTAG) (LTG core: AT, RTG core: CT) | 0.214
AGGAGGTCCTGGGTTCTAACCTGTTGCCTAG [AGGAGGTCTAG_LTGcore_CC_RTGcore_CT] (site AGGAGGTCTAG) (LTG core: CC, RTG core: CT) | 0.336
AGGAGGTCGTGGGTTCTAACCTGTTGCCTAG [AGGAGGTCTAG_LTGcore_CG_RTGcore_CT] (site AGGAGGTCTAG) (LTG core: CG, RTG core: CT) | 0.0327
AGGAGGTCTTGGGTTCTAACCTGTTGCCTCC [AGGAGGTCTAG_LTGcore_CT_RTGcore_GG] (site AGGAGGTCTAG) (LTG core: CT, RTG core: GG) | 0.0685
AGGAGGTCTTGGGTTCTAACCTGTTGCCTCT [AGGAGGTCTAG_LTGcore_CT_RTGcore_AG] (site AGGAGGTCTAG) (LTG core: CT, RTG core: AG) | 1.02
AGGAGGTCTTGGGTTCTAACCTGTTGCCTGA [AGGAGGTCTAG_LTGcore_CT_RTGcore_TC] (site AGGAGGTCTAG) (LTG core: CT, RTG core: TC) | 0.643
AGGAGGTCTTGGGTTCTAACCTGTTGCCTTC [AGGAGGTCTAG_LTGcore_CT_RTGcore_GA] (site AGGAGGTCTAG) (LTG core: CT, RTG core: GA) | 0.107
AGGAGGTGCTGGGTTCTAACCTGTTGCCTAG [AGGAGGTCTAG_LTGcore_GC_RTGcore_CT] (site AGGAGGTCTAG) (LTG core: GC, RTG core: CT) | 0.292
AGGAGGTGCTGGGTTCTAACCTGTTGCCTGC [AGGAGGTCTAG_LTGcore_GC_RTGcore_GC] (site AGGAGGTCTAG) (LTG core: GC, RTG core: GC) | 0.911
AGGAGGTTATGGGTTCTAACCTGTTGCCTTA [AGGAGGTCTAG_LTGcore_TA_RTGcore_TA] (site AGGAGGTCTAG) (LTG core: TA, RTG core: TA) | 0.209
AGGAGGTTCTGGGTTCTAACCTGTTGCCTAG [AGGAGGTCTAG_LTGcore_TC_RTGcore_CT] (site AGGAGGTCTAG) (LTG core: TC, RTG core: CT) | 0.0562
AGGAGGTTTTGGGTTCTAACCTGTTGCCTAA [AGGAGGTCTAG_LTGcore_TT_RTGcore_TT] (site AGGAGGTCTAG) (LTG core: TT, RTG core: TT) | 0.218
AGGCCTCATTGGGTTCTAACCTGTTGCCTAT [AGGCCTCCTAG_LTGcore_AT_RTGcore_AT] (site AGGCCTCCTAG) (LTG core: AT, RTG core: AT) | 0.0616
AGGCCTCCGTGGGTTCTAACCTGTTGCCTAG [AGGCCTCCTAG_LTGcore_CG_RTGcore_CT] (site AGGCCTCCTAG) (LTG core: CG, RTG core: CT) | 0.0631
AGGCCTCCGTGGGTTCTAACCTGTTGCCTCG [AGGCCTCCTAG_LTGcore_CG_RTGcore_CG] (site AGGCCTCCTAG) (LTG core: CG, RTG core: CG) | 0.0742

Sequence | recombinant barcode read abundance (log10)
AGGCCTCCTTGGGTTCTAACCTGTTGCCTTA [AGGCCTCCTAG_LTGcore_CT_RTGcore_TA] (site AGGCCTCCTAG) (LTG core: CT, RTG core: TA) | 0.635
AGGCCTCGCTGGGTTCTAACCTGTTGCCTAG [AGGCCTCCTAG_LTGcore_GC_RTGcore_CT] (site AGGCCTCCTAG) (LTG core: GC, RTG core: CT) | 0.224
AGGCCTCGGTGGGTTCTAACCTGTTGCCTAG [AGGCCTCCTAG_LTGcore_GG_RTGcore_CT] (site AGGCCTCCTAG) (LTG core: GG, RTG core: CT) | 1.04
AGGCCTCTATGGGTTCTAACCTGTTGCCTTA [AGGCCTCCTAG_LTGcore_TA_RTGcore_TA] (site AGGCCTCCTAG) (LTG core: TA, RTG core: TA) | 0.0149
AGGCCTCTGTGGGTTCTAACCTGTTGCCTCA [AGGCCTCCTAG_LTGcore_TG_RTGcore_TG] (site AGGCCTCCTAG) (LTG core: TG, RTG core: TG) | 0.186
AGGCGGGAATGGGTTCTAACCTGTTGCGGTT [AGGCGGGCTCC_LTGcore_AA_RTGcore_AA] (site AGGCGGGCTCC) (LTG core: AA, RTG core: AA) | 0.154
AGGCGGGCCTGGGTTCTAACCTGTTGCGGAG [AGGCGGGCTCC_LTGcore_CC_RTGcore_CT] (site AGGCGGGCTCC) (LTG core: CC, RTG core: CT) | 1.48
AGGCGGGCGTGGGTTCTAACCTGTTGCGGAG [AGGCGGGCTCC_LTGcore_CG_RTGcore_CT] (site AGGCGGGCTCC) (LTG core: CG, RTG core: CT) | 2.17
AGGCGGGCTTGGGTTCTAACCTGTTGCGGAG [AGGCGGGCTCC_LTGcore_CT_RTGcore_CT] (site AGGCGGGCTCC) (LTG core: CT, RTG core: CT) | 1.66
AGGCGGGGCTGGGTTCTAACCTGTTGCGGGC [AGGCGGGCTCC_LTGcore_GC_RTGcore_GC] (site AGGCGGGCTCC) (LTG core: GC, RTG core: GC) | 0.0608
AGGCGGGTGTGGGTTCTAACCTGTTGCGGAG [AGGCGGGCTCC_LTGcore_TG_RTGcore_CT] (site AGGCGGGCTCC) (LTG core: TG, RTG core: CT) | 0.159
AGGCGGTAGTGGGTTCTAACCTGTTGCTTAG [AGGCGGTCTAA_LTGcore_AG_RTGcore_CT] (site AGGCGGTCTAA) (LTG core: AG, RTG core: CT) | 0.187
AGGCGGTAGTGGGTTCTAACCTGTTGCTTCT [AGGCGGTCTAA_LTGcore_AG_RTGcore_AG] (site AGGCGGTCTAA) (LTG core: AG, RTG core: AG) | 0.197
AGGCGGTCTTGGGTTCTAACCTGTTGCTTAG [AGGCGGTCTAA_LTGcore_CT_RTGcore_CT] (site AGGCGGTCTAA) (LTG core: CT, RTG core: CT) | 2.29
AGGCGGTCTTGGGTTCTAACCTGTTGCTTAT [AGGCGGTCTAA_LTGcore_CT_RTGcore_AT] (site AGGCGGTCTAA) (LTG core: CT, RTG core: AT) | 0.144
AGGCGGTCTTGGGTTCTAACCTGTTGCTTCT [AGGCGGTCTAA_LTGcore_CT_RTGcore_AG] (site AGGCGGTCTAA) (LTG core: CT, RTG core: AG) | 0.284
AGGCGGTCTTGGGTTCTAACCTGTTGCTTTC [AGGCGGTCTAA_LTGcore_CT_RTGcore_GA] (site AGGCGGTCTAA) (LTG core: CT, RTG core: GA) | 0.389
